In assay [1] the test system is strain ST4SA. The experiment in a line: Antibiotic resistance of strain ST4SA (antibiotic discs, Oxoid). The class given is cell-based, Enterococcus mundtii.
Assay [2] has as its system Pseudomonas sp. isolated from infected middle-ear fluid. Nature of the assay: Activity on paper disks and comparison with antibiotics (inhibition zones). The class given is cell-based. To be noted: Ampicillin 10 μg, Bacitracin 10 units, Chloramphenicol 30 μg, Erythromycin 15 μg, Tetracycline 30 μg, peptide on paper disk. Here is the method: Activity was tested against a Pseudomonas sp. isolated from infected middle-ear fluid.

The subject of assay [3] is strain ST4SA. Nature of the assay: Resistance of E. mundtii ST4 against antibiotics and anti-inflammatory drugs. The class given is cell-based, Enterococcus mundtii. To be noted: Ibuprofen 5, Aspirin 5, Promoxil 100, Cipadur 50, Cefasyn 100, Roxibidd 30, Doximal 20, Ciploxx 100, Utin 80, Rheugesic 4, Coxflam 1.5, K-fenak 5, Preflam 3 mg/ml.
For assay [4], the system named is strain ST4SA. The experiment in a line: Growth of strain ST4SA in the presence of TMP-SMX and Metronidazole. The class given is cell-based, Enterococcus mundtii. The note with it: for Number of viable cells of strain ST4SA: NAN Palargon, 18 h, 37° C., control 1 × 10^8. Here is the method:
Children with HIV/AIDS are treated with Trimethoprim-sulfamethoxazole (TMP-SMX) and/or Metronidazole to prevent diarrhea.

For assay [5], the system named is Lactobacillus sakei DSM 20017. The experiment in a line: Blocking of the Lipid II target site with vancomycin. The note with it: L. sakei DSM 20017, FIG. 26. The class given is cell-based. The source says:
To test this hypothesis, the Lipid II target site of Lactobacillus sakei DSM 20017 (sensitive to peptide ST 4SA) was blocked with vancomycin (see schematic presentation, FIG. 26). Vancomycin adheres to the amino acid side chain of the Lipid II molecule, which would, theoretically, prevent peptide ST4SA from binding to the same site (that is if Lipid II acts as receptor). […] The fact that peptide ST4SA binds to more than one anchoring site on the sensitive cell may explain why it has such a broad spectrum of antimicrobial activity (inhibitory to Gram-positive and Gram-negative bacteria).

Where [6] appears, read: Pseudomonas, read-out: Diameter of inhibition zones.

Bridge positions count the residues as written; N and C are the ends. Square brackets hold non-standard residues; d marks the D form. Peptide text beside a SMILES is read from it. * marks the point of attachment. Ileψ(thiazoline)Cys = CC[C@H](C)[C@H](N)C1=N[C@H](C(=O)*)CS1; dOrn = NCCC[C@@H](N)C(=O)O

Regarding `CC1(C)S[C@@H]2[C@H](NC(=O)[C@H](N)c3ccccc3)C(=O)N2[C@H]1C(=O)O` [Ampicillin], the “Inhibition zone of antibiotic on ST4” value in the assay on strain ST4SA [1] is “+++ (+++ = inhibition zone, diameter larger than 17 mm)”. In addition, in assay [2] (setting [6]), the zone of inhibition at 10 µg/disc turned out to be 24 mm.
As for `CC(=O)Oc1ccccc1C(=O)O` [Aspirin], in the assay with strain ST4SA [3], the “Inhibition zone of medicament on Strain ST4SA” value was “+ (+ = diameters between 1 mm and 11 mm)”.
As for `CC[C@H](C)[C@H](N)C1=N[C@H](C(=O)N[C@@H](CC(C)C)C(=O)N[C@H](CCC(=O)O)C(=O)N[C@H](C(=O)N[C@H]2CCCCNC(=O)[C@H](CC(N)=O)NC(=O)[C@@H](CC(=O)O)NC(=O)[C@H](Cc3cnc[nH]3)NC(=O)[C@@H](Cc3ccccc3)NC(=O)[C@H]([C@@H](C)CC)NC(=O)[C@@H](CCCN)NC2=O)[C@@H](C)CC)CS1` [Bacitracin] ({Ileψ(thiazoline)Cys}-L[dE]IK[dOrn]I[dF]H[dD]N; lactam 4-C), in the assay on strain ST4SA [1], the “Inhibition zone of antibiotic on ST4” value was “++ (++ = inhibition zone, diameter 12 to 16 mm)”. Further, in assay [2], the “Diameter of inhibition zones” value amounted to 10 mm.
As for `Cc1nnc(SCC2=C(C(=O)O)N3C(=O)[C@@H](NC(=O)Cn4cnnn4)[C@H]3SC2)s1` [Cephazolin], the “Inhibition zone of antibiotic on ST4” value with strain ST4SA [1] is on record as “+ (+ = inhibition zone, diameter 1 to 11 mm)”.
For `O=C(N[C@H](CO)[C@H](O)c1ccc([N+](=O)[O-])cc1)C(Cl)Cl` [Chloramphenicol], the “Inhibition zone of antibiotic on ST4” value in the assay on strain ST4SA [1] was “+++ (+++ = inhibition zone, diameter larger than 17 mm)”. In addition, the zone of inhibition at 30 µg/disc in assay [2] (setting [6]) was found to be 28 mm.
As for `O=C(O)c1cn(C2CC2)c2cc(N3CCNCC3)c(F)cc2c1=O` [Ciprofloxzcin], the “Inhibition zone of antibiotic on ST4” value in the assay with strain ST4SA [1] is “+++ (+++ = inhibition zone, diameter larger than 17 mm)”.
With `Cc1onc(-c2ccccc2Cl)c1C(=O)N[C@@H]1C(=O)N2[C@@H]1SC(C)(C)[C@@H]2C(=O)O` [Cloxacillin], in the assay with strain ST4SA [1], the “Inhibition zone of antibiotic on ST4” value was “−” and the “Resistance of strain ST4SA to antibiotic” value is “resistant”.
On to `CC[C@H]1OC(=O)[C@H](C)[C@@H](O[C@H]2C[C@@](C)(OC)[C@@H](O)[C@H](C)O2)[C@H](C)[C@@H](O[C@@H]2O[C@H](C)C[C@H](N(C)C)[C@H]2O)[C@](C)(O)C[C@@H](C)C(=O)[C@H](C)[C@@H](O)[C@]1(C)O` [Erythromycin], for which the “Inhibition zone of antibiotic on ST4” value in the assay with strain ST4SA [1] is on record as “+++ (+++ = inhibition zone, diameter larger than 17 mm)”. Also, in assay [2], the “Diameter of inhibition zones” value is given as “No zone”.
Take `CC(C)Cc1ccc(C(C)C(=O)O)cc1` (stereo not shown) [Ibuprofen]: the “Inhibition zone of medicament on Strain ST4SA” value in the assay with strain ST4SA [3] is “++ (++ = diameters between 12 mm and 16 mm)”.
As for `COc1cccc(OC)c1C(=O)N[C@@H]1C(=O)N2[C@@H]1SC(C)(C)[C@@H]2C(=O)O` [Methicillin], in the assay on strain ST4SA [1], the “Inhibition zone of antibiotic on ST4” value is recorded as “−” and the “Resistance of strain ST4SA to antibiotic” value was “resistant”.
In the case of `Cc1ncc([N+](=O)[O-])n1CCO` [Metronidazole], in the assay with strain ST4SA [1], the “Inhibition zone of antibiotic on ST4” value was “−”. Moreover, in the assay on strain ST4SA [1], the “Resistance of strain ST4SA to antibiotic” value is “resistant”. Further, the “Decrease of cell numbers of strain ST4SA” value in the assay with strain ST4SA [4] is “four”. Besides, the “Number of viable cells of strain ST4SA” value with strain ST4SA [4] (Metronidazole 50 mg) is given as 1.3 × 10^4; in the assay with strain ST4SA [4] (Metronidazole 100 mg) it was 6 × 10^4; in the assay with strain ST4SA [4] (Metronidazole 200 mg) it was 3 × 10^4.
As for `CO[C@@H]1[C@@H](OC(N)=O)[C@@H](O)[C@H](Oc2ccc3c(O)c(NC(=O)c4ccc(O)c(CC=C(C)C)c4)c(=O)oc3c2C)OC1(C)C` [Novobiocin], the “Inhibition zone of antibiotic on ST4” value in the assay with strain ST4SA [1] is on record as “+++ (+++ = inhibition zone, diameter larger than 17 mm)”.
Turning to `C[C@@H]1[C@H](O)[C@@H](C)/C=C/C=C/CC/C=C/C=C/C=C/C=C/C(O[C@H]2O[C@H](C)[C@@H](O)[C@H](N)[C@@H]2O)CC2O[C@](O)(CC(O)C(O)CCC(O)CC(O)CC(O)CC(=O)O[C@H]1C)CC(O)C2C(=O)O` (stereo partly shown) [Nystatin], in the assay on strain ST4SA [1], the “Inhibition zone of antibiotic on ST4” value was “−” and the “Resistance of strain ST4SA to antibiotic” value was “resistant”.
Take `CC1COc2c(N3CCN(C)CC3)c(F)cc3c(=O)c(C(=O)O)cn1c23` (stereo not shown) [Oflaxacin]: the “Inhibition zone of antibiotic on ST4” value in the assay with strain ST4SA [1] is given as “++ (++ = inhibition zone, diameter 12 to 16 mm)”.
On to `Cc1onc(-c2ccccc2)c1C(=O)N[C@@H]1C(=O)N2[C@@H]1SC(C)(C)[C@@H]2C(=O)O` [Oxacillin], for which, in the assay with strain ST4SA [1], the “Inhibition zone of antibiotic on ST4” value is “−” and the “Resistance of strain ST4SA to antibiotic” value is listed as “resistant”.
Consider `CO[C@H]1/C=C/O[C@@]2(C)Oc3c(C)c(O)c4c(O)c(c(/C=N/N5CCN(C)CC5)c(O)c4c3C2=O)NC(=O)/C(C)=C\C=C\[C@H](C)[C@H](O)[C@@H](C)[C@@H](O)[C@@H](C)[C@H](OC(C)=O)[C@@H]1C` [Rifampicin], for which the “Inhibition zone of antibiotic on ST4” value in the assay with strain ST4SA [1] was “+++ (+++ = inhibition zone, diameter larger than 17 mm)”.
As for `[H]/N=C(/N)N[C@H]1[C@H](O)[C@@H](O)[C@H](O[C@@H]2O[C@@H](C)[C@](O)(C=O)[C@H]2O[C@@H]2O[C@@H](CO)[C@H](O)[C@@H](O)[C@@H]2NC)[C@@H](N/C(N)=N\[H])[C@@H]1O` [Streptomycin], in the assay on strain ST4SA [1], the “Inhibition zone of antibiotic on ST4” value is given as “−” and the “Resistance of strain ST4SA to antibiotic” value is listed as “resistant”.
In the case of `CN(C)[C@@H]1C(O)=C(C(N)=O)C(=O)[C@@]2(O)C(O)=C3C(=O)c4c(O)cccc4[C@@](C)(O)[C@H]3C[C@@H]12` [Tetracycline], in the assay with strain ST4SA [1], the “Inhibition zone of antibiotic on ST4” value is recorded as “+++ (+++ = inhibition zone, diameter larger than 17 mm)”. In addition, the zone of inhibition at 30 µg/disc in assay [2] (setting [6]) was found to be 35 mm.
Regarding `CN[C@H](CC(C)C)C(=O)N[C@H]1C(=O)N[C@@H](CC(N)=O)C(=O)N[C@H]2C(=O)N[C@H]3C(=O)N[C@H](C(=O)N[C@H](C(=O)O)c4cc(O)cc(O)c4-c4cc3ccc4O)[C@H](O)c3ccc(c(Cl)c3)Oc3cc2cc(c3O[C@@H]2O[C@H](CO)[C@@H](O)[C@H](O)[C@H]2O[C@H]2C[C@](C)(N)[C@H](O)[C@H](C)O2)Oc2ccc(cc2Cl)[C@H]1O` [Vancomycin], the “Inhibition zone of antibiotic on ST4” value in the assay on strain ST4SA [1] is listed as “++ (++ = inhibition zone, diameter 12 to 16 mm)”.
Turning to Neomycin, in the assay on strain ST4SA [1], the “Inhibition zone of antibiotic on ST4” value is given as “−” and the “Resistance of strain ST4SA to antibiotic” value is reported as “resistant”.
In the case of Nisin [reference compound], the “Effect on target cells after blocking Lipid II with vancomycin” value in assay [5] is on record as “prevented the binding of Nisin to the Lipid II target site”.
Take Penicillin: in the assay with strain ST4SA [1], the “Inhibition zone of antibiotic on ST4” value is “+++ (+++ = inhibition zone, diameter larger than 17 mm)”.
For the molecule Trimethoprim-sulfamethoxazole [TMP-SMX], in the assay on strain ST4SA [4], the “Decrease of cell numbers of strain ST4SA” value was “four”. For the same molecule, the “Number of viable cells of strain ST4SA” value in the assay on strain ST4SA [4] (TMP-SMX 20/100 mg) is on record as 7 × 10^4; in the assay on strain ST4SA [4] (TMP-SMX 40/200 mg), 8 × 10^4; in the assay with strain ST4SA [4] (TMP-SMX 60/300 mg) it was 8 × 10^4; in the assay with strain ST4SA [4] (TMP-SMX 80/400 mg) it was 1.8 × 10^4.

(Values after patent US7951385B2, “Probiotic strain and antimicrobial peptide derived therefrom” (Cipla Medpro Research and Development (Pty) Ltd., priority 2006, dated 2011).)
